Source: patent US8436011B2, “Pyridinopyridinone derivatives, preparation thereof and therapeutic use thereof” (Sanofi, priority 2008, dated 2013)
Like-named read-outs stand apart in the source and are kept apart here.

What was measured:
[1] = target: T1, FLT3 receptor (MV4-11 cell line bearing an FLT3ITD mutant) (Homo sapiens, UniProt P36888, INS600HVDFREYEYD); experiment: Inhibition of FLT3 receptor tyrosine kinase activity: proliferation of MV4-11 cells (CellTiter-Glo, 72 h); assay type: cell-based; details: 72 hours incubation, read-out: IC50 (concentration that inhibits 50% of the proliferation of the MV4-11 cells)
T1 construct: MV4-11 cell line, which line is established from a leukaemia of constitutively active AML type bearing an FLT3ITD mutant; endogenous in cells; host or cells: MV4-11
T1 sequence (P36888 with tags, fused parts or gaps INS600HVDFREYEYD): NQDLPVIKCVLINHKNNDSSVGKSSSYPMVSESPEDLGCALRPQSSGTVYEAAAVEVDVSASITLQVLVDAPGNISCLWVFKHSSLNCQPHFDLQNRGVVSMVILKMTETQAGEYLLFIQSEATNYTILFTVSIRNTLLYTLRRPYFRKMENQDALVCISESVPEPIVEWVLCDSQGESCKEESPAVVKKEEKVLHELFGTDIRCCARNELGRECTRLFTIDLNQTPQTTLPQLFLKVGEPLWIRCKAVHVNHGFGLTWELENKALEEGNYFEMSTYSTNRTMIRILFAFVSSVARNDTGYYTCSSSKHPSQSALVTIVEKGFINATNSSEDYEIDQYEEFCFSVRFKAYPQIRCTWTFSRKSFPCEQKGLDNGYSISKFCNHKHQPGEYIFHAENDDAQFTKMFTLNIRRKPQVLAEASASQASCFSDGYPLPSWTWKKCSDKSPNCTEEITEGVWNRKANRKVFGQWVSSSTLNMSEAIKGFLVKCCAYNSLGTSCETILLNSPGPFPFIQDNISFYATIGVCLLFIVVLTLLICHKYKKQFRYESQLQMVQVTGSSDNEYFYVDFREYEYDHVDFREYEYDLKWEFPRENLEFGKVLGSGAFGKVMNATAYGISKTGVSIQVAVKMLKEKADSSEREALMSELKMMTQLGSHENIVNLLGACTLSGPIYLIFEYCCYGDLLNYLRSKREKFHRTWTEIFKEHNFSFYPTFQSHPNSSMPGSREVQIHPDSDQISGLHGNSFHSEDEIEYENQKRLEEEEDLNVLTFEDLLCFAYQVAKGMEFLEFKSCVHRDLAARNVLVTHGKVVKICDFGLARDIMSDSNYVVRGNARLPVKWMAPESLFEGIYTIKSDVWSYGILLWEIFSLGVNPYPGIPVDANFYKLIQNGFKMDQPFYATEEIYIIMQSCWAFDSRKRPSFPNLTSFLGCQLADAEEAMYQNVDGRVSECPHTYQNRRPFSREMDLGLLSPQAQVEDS
Experimental: Measurement of Inhibition of the Tyrosine Kinase Activity of the FLT3 Receptor
The inhibitory effect of the compounds according to the invention towards the tyrosine kinase activity of the FLT3 receptor was evaluated on an MV4-11 cell line, which line is established from a leukaemia of constitutively active AML type bearing an FLT3ITD mutant. The inhibitory activity is correlated to the inhibition of cell growth, according to the protocols described by Spiekermann, K. et al., Blood, 2003, 101, (4) 1494-1504 and O'Farrell, A.-M. et al., Blood, 2003, 101, (9) 3597-3605.
(§1) MV4-11 cells are washed with PBS buffer and inoculated in 96-well plates, at a density of 1×10^5 cells/ml (100 μL per well), in RPMI 1640 containing 10% FCS, in the presence or absence of the test compounds. After incubation for 72 hours, the viable cells are quantified by measuring the cellular ATP by means of the CellTiter-Glo® kit (Promega, Cat G7571). The cells are treated according to the instructions given by the kit manufacturer, and the luminescence is measured using a Luminoskan (Ascent, Labsystem) with the following parameters: measurement: single; integration time: 1000 ms, lag time: 5 s.
The inhibitory activity with respect to the FLT3 receptor is given by the concentration that inhibits 50% of the proliferation of the MV4-11 cells.

[2] = target: fusion protein FIP1L1-PDGF-Rα (EOL-1 cell line) (Homo sapiens, UniProt P16234); experiment: Inhibition of PDGF alpha receptor tyrosine kinase activity: proliferation of EOL-1 cells (CellTiter-Glo, 72 h); assay type: cell-based
Experimental: Measurement of Inhibition of the Tyrosine Kinase Activity of the PDGF Alpha Receptor: The inhibitory effect of the compounds according to the invention towards the tyrosine kinase activity of the PDGF alpha receptor was evaluated on the EOL-1 cell line, which line is established from a leukaemia of constitutively active chronic eosinophilic leukaemia (CEL) type. The EOL-1 line has been described as expressing the fusion protein FIP1L1-PDGF-Rα and is sensitive to kinase inhibitors in proliferation tests (Cools J. et al., Blood 2004, 103, […]). The inhibitory activity is correlated to the inhibition of cell growth. […] After incubation for 72 hours, the viable cells are quantified by measuring the cellular ATP by means of the CellTiter-Glo® kit (Promega, Cat G7571). The cells are treated according to the instructions given by the kit manufacturer, and the luminescence is measured using a Luminoskan (Ascent, Labsystem) with the following parameters: measurement: single; integration time: 1000 ms, lag time: 5 s. It is thus seen that the compounds according to the invention have inhibitory activity on the tyrosine kinase activity of PDGF-Rα. This activity is given by the concentration that inhibits 50% of the proliferation of the EOL-1 cells.

[3] = target: T2, fusion protein Tel/PDGF-Rβ (BaF3 Tel/PDGF cells) (Homo sapiens, UniProt P09619); experiment: Inhibition of PDGF-Rβ tyrosine kinase activity: proliferation of BaF3 Tel/PDGF cells (CellTiter-Glo, 72 h); assay type: cell-based, murine; details: 72 hours incubation, read-out: IC50 (concentration that inhibits 50% of the proliferation of the BaF3 Tel/PDGF cells)
T2 construct: the transmembrane and intracellular part of the PDGF-Rβ receptor; N-terminal part of the Tel transcription factor (ETV6); expressed in transfected cells; host or cells: murine haematopoietic cell line BaF/3; the other entry of the earlier key: ETV6 (P41212, Transcription factor ETV6)
Experimental: Measurement of Inhibition of the Tyrosine Kinase Activity of the PDGF Beta (PDGF-Rβ) (Baf-3 tel/PDGFIRβ) Receptor:
This test consists in evaluating the effects of the compounds on the tyrosine kinase activity of the PDGF beta receptor.
The inhibitory effect of the compounds according to the invention towards the tyrosine kinase activity of the PDGF-R receptor was evaluated on the murine haematopoietic cell line BaF/3 transfected with a plasmid coding for the fusion protein Tel/PDGF-Rβ. This fusion protein is found in chronic myelomonocytic myeloid leukaemias (CMML). It comprises the N-terminal part of the Tel transcription factor and the transmembrane and intracellular part of the PDGF-Rβ receptor. This fusion protein is present in dimerized form (presence of an oligomerization domain in the N-terminal part of Tel) and, as a result, leads to constitutive activity of the kinase domain of PDGF-Rβ. This line BaF3 Tel/PDGF has been described in the literature several times and especially, in detailed manner, in the article by M. Carroll et al., PNAS, 1996, 93, 14845-14850.
as §1, with “The BaF3 Tel/PDGF” for “MV4-11”, “phosphate” for “PBS”, “5×10^4” for “1×10^5”, “[…]” for “μL”
It is thus seen that the compounds according to the invention have inhibitory activity on the tyrosine kinase activity of PDGF-Rβ. This activity is given by the concentration that inhibits 50% of the proliferation of the BaF3 Tel/PDGF cells (IC50).

[4] = read-out: IC50 (concentration that inhibits 50% of the proliferation of the EOL-1 cells), 72 hours incubation
[5] = 72 hours incubation, read-out: IC50 (concentration that inhibits 50% of the proliferation of the EOL-1 cells)

Sequence of fusion protein FIP1L1-PDGF-Rα (EOL-1 cell line) (P16234 579-1089, change not shown): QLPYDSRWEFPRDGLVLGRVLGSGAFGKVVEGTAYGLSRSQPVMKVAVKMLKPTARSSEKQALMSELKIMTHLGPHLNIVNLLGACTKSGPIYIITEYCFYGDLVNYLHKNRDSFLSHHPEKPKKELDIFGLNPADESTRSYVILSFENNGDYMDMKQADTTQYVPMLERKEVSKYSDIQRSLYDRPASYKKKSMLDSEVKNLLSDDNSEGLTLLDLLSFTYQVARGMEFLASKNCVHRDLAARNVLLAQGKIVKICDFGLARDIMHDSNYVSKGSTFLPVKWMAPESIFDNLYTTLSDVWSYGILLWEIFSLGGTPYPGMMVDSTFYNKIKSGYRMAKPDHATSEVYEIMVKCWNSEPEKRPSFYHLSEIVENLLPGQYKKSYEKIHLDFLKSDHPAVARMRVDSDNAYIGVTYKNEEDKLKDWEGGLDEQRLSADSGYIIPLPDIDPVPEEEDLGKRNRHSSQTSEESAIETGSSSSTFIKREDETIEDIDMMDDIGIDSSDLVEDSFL
Sequence of fusion protein FIP1L1-PDGF-Rα (EOL-1 cell line) (Q6UN15 1-339 partner): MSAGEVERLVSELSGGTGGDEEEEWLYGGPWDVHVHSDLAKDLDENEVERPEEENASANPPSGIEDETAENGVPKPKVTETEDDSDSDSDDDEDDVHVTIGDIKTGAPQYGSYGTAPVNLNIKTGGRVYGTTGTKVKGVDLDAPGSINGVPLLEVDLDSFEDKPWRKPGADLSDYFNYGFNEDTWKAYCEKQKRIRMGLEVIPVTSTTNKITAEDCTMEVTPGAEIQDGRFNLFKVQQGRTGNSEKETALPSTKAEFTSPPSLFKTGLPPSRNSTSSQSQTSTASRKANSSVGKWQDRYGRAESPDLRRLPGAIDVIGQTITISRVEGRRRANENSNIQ
T2 sequence (P09619 with tags, fused parts or gaps): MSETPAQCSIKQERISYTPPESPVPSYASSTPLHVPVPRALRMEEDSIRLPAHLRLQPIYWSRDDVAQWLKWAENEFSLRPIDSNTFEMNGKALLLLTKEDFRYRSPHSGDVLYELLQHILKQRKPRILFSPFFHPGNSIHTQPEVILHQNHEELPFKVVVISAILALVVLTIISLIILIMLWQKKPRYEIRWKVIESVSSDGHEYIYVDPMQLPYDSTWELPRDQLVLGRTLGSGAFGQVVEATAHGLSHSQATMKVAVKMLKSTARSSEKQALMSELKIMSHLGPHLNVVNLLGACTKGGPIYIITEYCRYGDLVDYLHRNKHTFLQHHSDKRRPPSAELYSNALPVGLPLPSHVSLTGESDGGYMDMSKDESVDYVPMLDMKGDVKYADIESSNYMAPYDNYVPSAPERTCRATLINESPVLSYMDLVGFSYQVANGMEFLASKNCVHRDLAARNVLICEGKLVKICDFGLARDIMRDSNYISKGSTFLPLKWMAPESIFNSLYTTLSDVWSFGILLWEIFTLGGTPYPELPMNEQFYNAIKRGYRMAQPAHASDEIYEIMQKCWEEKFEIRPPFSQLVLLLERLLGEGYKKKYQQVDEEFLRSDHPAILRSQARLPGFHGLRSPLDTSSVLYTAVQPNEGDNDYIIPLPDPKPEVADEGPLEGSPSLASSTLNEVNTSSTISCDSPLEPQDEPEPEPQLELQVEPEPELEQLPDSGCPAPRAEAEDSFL

Molecule CCn1c(N)c(C(=O)NC)c(=O)c2ccc(-c3ccc(CC(=O)Nc4cc(F)cc(F)c4)cc3)nc21 [compound 6, 2-amino-7-(4-{2-[(3,5-difluorophenyl)amino]-2-oxoethyl}phenyl)-1-ethyl-N-methyl-4-oxo-1,4-dihydro-1,8-naphthyridine-3-carboxamide] has an IC50 [1] of 100 nM, a melting point greater than 260 °C and an IC50 [2, 4] of 0.57 nM. It also gave an IC50 [3] of 11 nM.

CCn1c(N)c(C(=O)NC)c(=O)c2ccc(-c3ccc(CC(=O)Nc4ccccc4Cl)cc3)nc21 [compound 5, 2-amino-7-(4-{2-[(2-chlorophenyl)amino]-2-oxoethyl}phenyl)-1-ethyl-N-methyl-4-oxo-1,4-dihydro-1,8-naphthyridine-3-carboxamide] gave an IC50 [1] of 190 nM, a melting point greater than 260 °C and an IC50 [2, 4] of 1.6 nM.

With CCn1c(N)c(C(=O)NC)c(=O)c2ccc(-c3ccc(CC(=O)Nc4nccs4)cc3)nc21 [compound 35, 2-amino-1-ethyl-N-methyl-4-oxo-7-{4-[2-oxo-2-(1,3-thiazol-2-ylamino)-ethyl]phenyl}-1,4-dihydro-1,8-naphthyridine-3-carboxamide] the IC50 [1] was 83 nM, the melting point was 303 °C and the IC50 [2, 5] was 0.8 nM. For the same molecule, the IC50 [3] was 3.7 nM.

In the case of CCN1CCC[C@@H]1CNC(=O)Cc1ccc(-c2ccc3c(=O)c(C(=O)NC)c(N)n(CC)c3n2)cc1 [compound 14, 2-amino-1-ethyl-7-{4-[2-({[(2R)-1-ethylpyrrolidin-2-yl]methyl}amino)-2-oxoethyl]phenyl}-N-methyl-4-oxo-1,4-dihydro-1,8-naphthyridine-3-carboxamide], the IC50 [1] is reported as 340 nM, the melting point is reported as 270 °C and the IC50 [3] is reported as 11 nM.

Work on CCN1CCCC1CNC(=O)Cc1ccc(-c2ccc3c(=O)c(C(=O)NC)c(N)n(C4CCCC4)c3n2)cc1 (stereo not shown) [compound 50, 2-amino-1-cyclopentyl-7-[4-(2-{[(1-ethylpyrrolidin-2-yl)methyl]amino}-2-oxoethyl)phenyl]-N-methyl-4-oxo-1,4-dihydro-1,8-naphthyridine-3-carboxamide] yielded a melting point of 222 °C and an IC50 [2, 4] of 3.2 nM.

Work on CCn1c(N)c(C(=O)NC)c(=O)c2ccc(-c3ccc(CC(=O)Nc4ccccn4)cn3)nc21 [compound 19, 2-amino-1-ethyl-N-methyl-4-oxo-7-{5-[2-oxo-2-(pyrid-2-ylamino)-ethyl]pyrid-2-yl}-1,4-dihydro-1,8-naphthyridine-3-carboxamide] yielded an IC50 [1] of 100 nM, an IC50 [2, 4] of 0.4 nM and an IC50 [3] of 27 nM.

CCn1c(N)c(C(=O)NC)c(=O)c2ccc(-c3ccc(CC(=O)Nc4cccnc4)cc3)nc21 [compound 3, 2-amino-1-ethyl-N-methyl-4-oxo-7-{4-[2-oxo-2-(pyrid-3-ylamino)ethyl]-phenyl}-1,4-dihydro-1,8-naphthyridine-3-carboxamide] showed an IC50 [1] of 330 nM.

With CCn1c(N)c(C(=O)NC)c(=O)c2ccc(-c3ccc(CC(=O)Nc4ccncn4)cc3)nc21 [compound 16, 2-amino-1-ethyl-N-methyl-4-oxo-7-{4-[2-oxo-2-(pyrimidin-4-ylamino)-ethyl]phenyl}-1,4-dihydro-1,8-naphthyridine-3-carboxamide] the IC50 [1] was 182 nM and the melting point was greater than 280 °C.

With CCN1CCCC1CNC(=O)Cc1csc(-c2ccc3c(=O)c(C(=O)NC)c(N)n(CC)c3n2)n1 (stereo not shown) [compound 43, 2-amino-1-ethyl-7-[4-(2-{[(1-ethylpyrrolidin-2-yl)methyl]amino}-2-oxoethyl)-1,3-thiazol-2-yl]-N-methyl-4-oxo-1,4-dihydro-1,8-naphthyridine-3-carboxamide] the IC50 [2, 5] was 29.7 nM.

CCN1CCCC1CNC(=O)CCCCc1ccc(-c2ccc3c(=O)c(C(=O)NC)c(N)n(CC)c3n2)cc1 (stereo not shown) [compound 51, 2-amino-1-ethyl-7-[4-(5-{[(1-ethylpyrrolidin-2-yl)methyl]amino}-5-oxopentyl)phenyl]-N-methyl-4-oxo-1,4-dihydro-1,8-naphthyridine-3-carboxamide] gave a melting point of 180 °C and an IC50 [2, 5] of 92.7 nM.

With CCn1c(N)c(C(=O)NC)c(=O)c2ccc(-c3ccc(CC(=O)Nc4ccccn4)cc3)nc21 [compound 4, 2-amino-1-ethyl-N-methyl-4-oxo-7-{4-[2-oxo-2-(pyrid-2-ylamino)ethyl]-phenyl}-1,4-dihydro-1,8-naphthyridine-3-carboxamide] the IC50 [1] was 210 nM.

Work on CCN1CCOCC1CNC(=O)Cc1ccc(-c2ccc3c(=O)c(C(=O)NC)c(N)n(CC)c3n2)cc1 (stereo not shown) [compound 22, 2-amino-1-ethyl-7-[4-(2-{[(4-ethylmorpholin-3-yl)methyl]amino}-2-oxoethyl)phenyl]-N-methyl-4-oxo-1,4-dihydro-1,8-naphthyridine-3-carboxamide] yielded an IC50 [1] of 130 nM and an IC50 [3] of 0.07 nM.
